Values of other authors as cited in US20080132413A1, “Methods for the Improvement of Plant Tolerance Towards Glyphosate” (Bayer Cropscience AG, priority 2004, published 2008).

Test system: glyphosate-resistant cotton (Roundup Ready Cotton)

## O=[N+]([O-])/N=C1\NCCN1Cc1ccc(Cl)nc1 [imidacloprid]
Glyphosate treatment at the 4 leaf stage, after 45 days
  increase in buds compared to a control not treated with imidacloprid: 18%
Glyphosate treatment at the 4 leaf stage, after 62 days
  sum of the counts of buds and bolls versus untreated control: matched that of the untreated control
Glyphosate treatment at the 6 leaf stage, after 40 days
  minus of buds compared to the control not treated with imidacloprid: 14%
Glyphosate treatment at the 6 leaf stage, after 57 days
  sum of the counts of buds and bolls (yield) greater than that of the untreated control: about 14%
